Read-outs that look alike come from different tables or passages of the source.
Columns and labels:
[1] = 100 g/L in water, hermetically sealed, 25° C. or 40° C., FIG. 1
Protocol: The vertical axis represents the peak area of L-cysteinyl-L-glycine with respect to the peak area of reduced glutathione which is taken as 100 in an HPLC analysis of the aqueous solution. […] In FIG. 1, the white circles indicate the results at 40° C., and the black lozenges indicate the results at 25° C.
An α-type crystal of reduced glutathione (manufactured by Kojin Co., Ltd.) was dissolved in water, and thereafter, the solution was adjusted to 100 g/L and hermetically sealed and placed in a thermostat bath at 25° C. or 40° C. while stirring. These reduced glutathione aqueous solutions were sampled over time and subjected to an HPLC analysis.

[2] = cited from earlier work

SMILES: N[C@@H](CCC(=O)N[C@@H](CS)C(=O)NCC(=O)O)C(=O)O [reduced glutathione, γ-L-glutamyl-L-cysteinyl-L-glycine]
- stability in aqueous solution (formation of L-cysteinyl-L-glycine over time, HPLC) [1]: decomposed over time in a temperature-dependent manner to produce L-cysteinyl-L-glycine
- saturation solubility in water ([2]; 10° C.): 83 mg/mL
- saturation solubility in water ([2]; 25° C.): 130 mg/mL
